According to ChEMBL document CHEMBL1122339, “Structure-activity studies of configurationally rigid arylprostaglandins” (1983):
Calls of active or inactive are those of the source. The calls are words filed in the database; no cut-off is given here.

Organism: Cavia porcellus
Test: In vitro potency relative to PGE-2 (=100 for uterine stimulant activity in guinea pig at 0.1-10 ug/mL concentration)
Type: functional

| Compound | Relative potency |
| --- | --- |
| O=C(O)CCC/C=C\C[C@H]1C(=O)C[C@@H](O)C1/C=C/[C@H](O)[C@@H]1CCc2ccccc2C1 (stereo partly drawn) | 2 |
| O=C(O)CCC/C=C\C[C@H]1C(=O)C[C@@H](O)C1/C=C/[C@@H](O)[C@@H]1Cc2ccccc2O1 (stereo partly drawn) | 18 |
| O=C(O)CCC/C=C\C[C@@H]1C(/C=C/[C@@H](O)C2Cc3ccccc3C2)[C@H](O)C[C@@H]1O (stereo partly drawn) | 0.3 |
| O=C(O)CCC/C=C\C[C@@H]1C(/C=C/[C@@H](O)COc2ccccc2)[C@H](O)C[C@@H]1O (stereo partly drawn) | 15 |
| O=C(O)CCC/C=C\C[C@@H]1C(/C=C/[C@@H](O)[C@@H]2CCc3ccccc3C2)[C@H](O)C[C@@H]1O (stereo partly drawn) | 18 |
| O=C(O)CCC/C=C\C[C@@H]1C(/C=C/[C@H](O)C2Cc3ccccc3C2)[C@H](O)C[C@@H]1O (stereo partly drawn) | 0.07 |
| O=C(O)CCC/C=C\C[C@H]1C(=O)C[C@@H](O)C1/C=C/[C@H](O)C1Cc2ccccc2C1 (stereo partly drawn) | 0.3 |
| O=C(O)CCC/C=C\C[C@@H]1C(/C=C/[C@H](O)C2Cc3ccccc3O2)[C@H](O)C[C@@H]1O (stereo partly drawn) | 0.3 |
| O=C(O)CCC/C=C\C[C@H]1C(=O)C[C@@H](O)C1/C=C/[C@H](O)C1Cc2ccccc2O1 (stereo partly drawn) | 19 |
| O=C(O)CCC/C=C\C[C@H]1C(=O)C[C@@H](O)C1/C=C/[C@H](O)[C@H]1CCc2ccccc2O1 (stereo partly drawn) | 3 |
| O=C(O)CCC/C=C\C[C@H]1C(=O)C[C@@H](O)C1/C=C/[C@@H](O)[C@H]1CCc2ccccc2O1 (stereo partly drawn) | 66 |
| O=C(O)CCC/C=C\C[C@@H]1C(/C=C/[C@H](O)[C@@H]2CCc3ccccc3O2)[C@H](O)C[C@@H]1O (stereo partly drawn) | 0.4 |
| O=C(O)CCC/C=C\C[C@H]1C(=O)C[C@@H](O)C1/C=C/[C@@H](O)[C@@H]1CCc2ccccc2C1 (stereo partly drawn) | 36 |
| O=C(O)CCC/C=C\C[C@@H]1C(/C=C/[C@@H](O)[C@H]2CCc3ccccc3C2)[C@H](O)C[C@@H]1O (stereo partly drawn) | 2 |
| O=C(O)CCC/C=C\C[C@H]1C(=O)C[C@@H](O)C1/C=C/[C@@H](O)C1Cc2ccccc2C1 (stereo partly drawn) | 6 |
| O=C(O)CCC/C=C\C[C@@H]1C(/C=C/[C@H](O)[C@H]2CCc3ccccc3O2)[C@H](O)C[C@@H]1O (stereo partly drawn) | 0.8 |
| O=C(O)CCC/C=C\C[C@@H]1C(/C=C/[C@@H](O)[C@H]2CCc3ccccc3O2)[C@H](O)C[C@@H]1O (stereo partly drawn) | 19 |
| O=C(O)CCC/C=C\C[C@@H]1C(/C=C/[C@H](O)[C@@H]2CCc3ccccc3C2)[C@H](O)C[C@@H]1O (stereo partly drawn) | 0.1 |
| O=C(O)CCC/C=C\C[C@@H]1C(/C=C/[C@@H](O)[C@@H]2Cc3ccccc3O2)[C@H](O)C[C@@H]1O (stereo partly drawn) | 5 |
| O=C(O)CCC/C=C\C[C@@H]1C(/C=C/[C@@H](O)[C@H]2Cc3ccccc3O2)[C@H](O)C[C@@H]1O (stereo partly drawn) | 0.2 |
| O=C(O)CCC/C=C\C[C@@H]1C(/C=C/[C@H](O)[C@H]2CCc3ccccc3C2)[C@H](O)C[C@@H]1O (stereo partly drawn) | 0.1 |
| O=C(O)CCC/C=C\C[C@@H]1C(/C=C/[C@H](O)COc2ccccc2)[C@H](O)C[C@@H]1O (stereo partly drawn) | 300 |
| O=C(O)CCC/C=C\C[C@H]1C(=O)C[C@@H](O)C1/C=C/[C@H](O)[C@@H]1CCc2ccccc2O1 (stereo partly drawn) | 7 |
| O=C(O)CCC/C=C\C[C@@H]1C(/C=C/[C@@H](O)[C@@H]2CCc3ccccc3O2)[C@H](O)C[C@@H]1O (stereo partly drawn) | 25 |
| O=C(O)CCC/C=C\C[C@H]1C(=O)C[C@@H](O)C1/C=C/[C@H](O)[C@H]1CCc2ccccc2C1 (stereo partly drawn) | 0.1 |
| O=C(O)CCC/C=C\C[C@H]1C(=O)C[C@@H](O)C1/C=C/[C@@H](O)[C@@H]1CCc2ccccc2O1 (stereo partly drawn) | 130 |
| O=C(O)CCC/C=C\C[C@H]1C(=O)C[C@@H](O)C1/C=C/[C@@H](O)[C@H]1Cc2ccccc2O1 (stereo partly drawn) | 0.1 |
| O=C(O)CCC/C=C\C[C@H]1C(=O)C[C@@H](O)C1/C=C/[C@@H](O)[C@H]1CCc2ccccc2C1 (stereo partly drawn) | 44 |

The compounds below were run on Mus musculus (assay: In vivo potency relative to PGE-2 =100 for diarrheal activity in conscious mice.).
Type: functional

| Compound | Relative potency |
| --- | --- |
| O=C(O)CCC/C=C\C[C@H]1C(=O)C[C@@H](O)C1/C=C/[C@@H](O)[C@@H]1Cc2ccccc2O1 (stereo partly drawn) | >250 |
| O=C(O)CCC/C=C\C[C@@H]1C(/C=C/[C@@H](O)C2Cc3ccccc3C2)[C@H](O)C[C@@H]1O (stereo partly drawn) | 50 |
| O=C(O)CCC/C=C\C[C@@H]1C(/C=C/[C@@H](O)COc2ccccc2)[C@H](O)C[C@@H]1O (stereo partly drawn) | 150 |
| O=C(O)CCC/C=C\C[C@@H]1C(/C=C/[C@@H](O)[C@@H]2CCc3ccccc3C2)[C@H](O)C[C@@H]1O (stereo partly drawn) | 40 |
| O=C(O)CCC/C=C\C[C@@H]1C(/C=C/[C@H](O)C2Cc3ccccc3O2)[C@H](O)C[C@@H]1O (stereo partly drawn) | 15 |
| O=C(O)CCC/C=C\C[C@H]1C(=O)C[C@@H](O)C1/C=C/[C@H](O)C1Cc2ccccc2O1 (stereo partly drawn) | 15 |
| O=C(O)CCC/C=C\C[C@H]1C(=O)C[C@@H](O)C1/C=C/[C@@H](O)[C@H]1CCc2ccccc2O1 (stereo partly drawn) | 270 |
| O=C(O)CCC/C=C\C[C@H]1C(=O)C[C@@H](O)C1/C=C/[C@@H](O)[C@@H]1CCc2ccccc2C1 (stereo partly drawn) | 40 |
| O=C(O)CCC/C=C\C[C@@H]1C(/C=C/[C@@H](O)[C@H]2CCc3ccccc3C2)[C@H](O)C[C@@H]1O (stereo partly drawn) | 10 |
| O=C(O)CCC/C=C\C[C@H]1C(=O)C[C@@H](O)C1/C=C/[C@@H](O)C1Cc2ccccc2C1 (stereo partly drawn) | 25 |
| O=C(O)CCC/C=C\C[C@@H]1C(/C=C/[C@@H](O)[C@H]2CCc3ccccc3O2)[C@H](O)C[C@@H]1O (stereo partly drawn) | 310 |
| O=C(O)CCC/C=C\C[C@@H]1C(/C=C/[C@@H](O)[C@@H]2Cc3ccccc3O2)[C@H](O)C[C@@H]1O (stereo partly drawn) | 190 |
| O=C(O)CCC/C=C\C[C@@H]1C(/C=C/[C@@H](O)[C@H]2Cc3ccccc3O2)[C@H](O)C[C@@H]1O (stereo partly drawn) | 10 |
| O=C(O)CCC/C=C\C[C@@H]1C(/C=C/[C@@H](O)[C@@H]2CCc3ccccc3O2)[C@H](O)C[C@@H]1O (stereo partly drawn) | 1100 |
| O=C(O)CCC/C=C\C[C@H]1C(=O)C[C@@H](O)C1/C=C/[C@@H](O)[C@@H]1CCc2ccccc2O1 (stereo partly drawn) | 730 |

The compounds below were run on Mus musculus (assay: In vivo potency relative to PGE-2 =100 for diarrheal activity in conscious mice at 0.3-3.0 mg/kg, iv; No effect).
Type: functional, organism-based

| Compound | Relative potency |
| --- | --- |
| O=C(O)CCC/C=C\C[C@@H]1C(/C=C/[C@H](O)C2Cc3ccccc3C2)[C@H](O)C[C@@H]1O (stereo partly drawn) | inactive |
| O=C(O)CCC/C=C\C[C@H]1C(=O)C[C@@H](O)C1/C=C/[C@H](O)C1Cc2ccccc2C1 (stereo partly drawn) | inactive |
| O=C(O)CCC/C=C\C[C@H]1C(=O)C[C@@H](O)C1/C=C/[C@H](O)[C@H]1CCc2ccccc2C1 (stereo partly drawn) | inactive |
| O=C(O)CCC/C=C\C[C@H]1C(=O)C[C@@H](O)C1/C=C/[C@@H](O)[C@H]1Cc2ccccc2O1 (stereo partly drawn) | inactive |
| O=C(O)CCC/C=C\C[C@H]1C(=O)C[C@@H](O)C1/C=C/[C@@H](O)[C@H]1CCc2ccccc2C1 (stereo partly drawn) | inactive |
